Assay results from patent publication US20240043420A1, “7-AZAINDOLE COMPOUNDS FOR INHIBITION OF BCR-ABL TYROSINE KINASES” (EnLiven Therapeutics, Inc., priority 2020, published 2024).
Where two headings read alike, the source gives them in different places.

Key:
K562 cells = assay: K562 cell proliferation assay (CellTiter-Glo); type: cell-based; settings: CellTiter-Glo viability, read-out: Cell Line (IC50, nM) K562
Method: (§1) K562 and HL60 cells, cultured in Iscove's Modified Dulbecco's Media (IMDM) supplemented with 10% FBS, were harvested at 50-80% confluency and plated at 2,000 cells per well (K562) or 1,500 cells per well (HL60) in 384-well tissue culture plates. A subset of wells contained media only (low control, LC). Compounds were serially diluted in DMSO. 40 nL of compound or DMSO only (high control, HC) were added to each well using an Echo 550 liquid handler (Labcyte). The plates were placed in a 37° C. incubator with 5% CO2 for 72 hours. Cell viability was measured using a CellTiter-Glo luminescent cell viability assay (Promega), which allows for relative quantification of metabolically active cells by luminescence-based measurements of intracellular ATP concentrations. Briefly, plates were removed from the incubator and equilibrated for 15 minutes at room temperature prior to the addition of 40 μL of CellTiter-Glo reagent. Plates were then incubated for 30 minutes at room temperature. Luminescence was measured using an EnSpire plate reader (Perkin Elmer). As noted above, luminescence values from wells with DMSO only or media without cells were used as high and low controls (HC and LC), respectively. Normalized percent viability was calculated as follows: percent viability=100×(Lumsample−LumLC)/(LumHC−LumLC).

HL60 cells = assay: HL60 cell proliferation assay (CellTiter-Glo); type: cell-based; settings: CellTiter-Glo viability, read-out: Cell Line (IC50, nM) HL60
Method: as §1

ABL1 = target: T1, ABL1 (Homo sapiens, UniProt P00519); assay: Luminescence-based ABL kinase assay (ADP-Glo, 300 μM ATP); type: biochemical
T1 construct: purchased Carna Biosciences
Method: (§2) Kinase activity of ABL1 was measured using the ADP-Glo system (Promega), which measures formation of ADP using a luminescence-based method. Compounds were serially diluted in DMSO. 20 nL of compound or DMSO only (high control, HC) were added to a 384-well plate (OptiPlate-384, PerkinElmer) using an Echo550 liquid handler (Labcyte). 15 μL of kinase solution (10 mM MgCl2, 0.01% Brij-35, 2 mM DTT, 0.05% BSA, 1 mM EGTA, 50 mM HEPES pH 7.5, and 3.325 nM ABL1 [Carna Biosciences]) were added to each well of the 384-well plate containing the compounds. No enzyme control wells were included (low control, LC). The plate was incubated at room temperature for 30 minutes. 5 μL of a second solution containing 10 mM MgCl2, 0.01% Brij-35, 2 mM DTT, 0.05% BSA, 1 mM EGTA, 50 mM HEPES pH 7.5, 6 μM Peptide 2 (Perkin Elmer, Cat No 760346), and 1.2 mM ATP were added to each well to start the kinase reaction. The plate was incubated for 90 minutes at room temperature. 20 μL of ADP-Glo reagent (Promega) were then added to each well and the plate was incubated for 40 minutes at room temperature. 40 μL of kinase detection reagent (Promega) was added to each well and the plate was incubated for an additional 45 minutes at room temperature. During this step, ADP was converted to ATP, a substrate for luciferase, to produce luminescence signal. Luminescence was measured on an Envision plate reader (Perkin Elmer). Luminescence signal positively correlates with kinase activity. The percent kinase activity was calculated as follows: percent kinase activity=100×(Lumsample−LumLC)/(LumHC−LumLC). As noted above, DMSO only and no enzyme wells were used as high and low controls, respectively. IC50 values were calculated using the XLFit software.

ABL1 (T315I) = ABL1 (T315I) (Homo sapiens, UniProt P00519, T315I); assay: Luminescence-based ABL kinase assay (ADP-Glo, 300 μM ATP), T315I mutant; type: biochemical
Method: as §2

| Structure (SMILES) | IC50 (K562 cells; Homo sapiens, K562, 72 h) [nM] | IC50 (HL60 cells; Homo sapiens, HL-60, 72 h) [nM] | IC50 (ABL1) [nM] | IC50 (ABL1 (T315I)) [nM] | IC50 (K562 cells; 72 hours) [nM] | IC50 (HL60 cells; 72 hours) [nM] |
| --- | --- | --- | --- | --- | --- | --- |
| COc1ccccc1-c1c[nH]c2nc(NC(=O)[C@@H]3C[C@@H]3CN3CCN(C)CC3)ccc12 (racemic) [Compound 41, cis-N-[3-(2-methoxyphenyl)-1H-pyrrolo[2,3-b]pyridin-6-yl]-2-[(4-methylpiperazin-1-yl)methyl]cyclopropane-1-carboxamide] | 654 | > 10000 | 106 | 26.8 |  |  |
| COc1ccccc1-c1c[nH]c2nc(NC(=O)[C@@H]3C[C@@H]3CCO)ccc12 (relative stereo) [Compound 105, cis-2-(2-hydroxyethyl)-N-(3-(2-methoxyphenyl)-1H-pyrrolo[2,3-b]pyridin-6-yl)cyclopropanecarboxamide] | 489 | > 10000 | 109 | 19.9 |  |  |
| COc1ccccc1-c1c[nH]c2nc(NC(=O)[C@H]3C[C@H]3C#N)ccc12 (relative stereo) [Compound 106, cis-2-cyano-N-[3-(2-methoxyphenyl)-1H-pyrrolo[2,3-b]pyridin-6-yl]cyclopropane-1-carboxamide] | 275 | > 10000 | 78.1 | 26.1 |  |  |
| COc1ccccc1-c1c[nH]c2nc(NC(=O)[C@H]3C[C@@H]3CO)ccc12 (relative stereo) [Compound 108, trans-2-(hydroxymethyl)-N-(3-(2-methoxyphenyl)-1H-pyrrolo[2,3-b]pyridin-6-yl)cyclopropane-1-carboxamide] | 419 | > 10000 | 78.6 | 17.8 |  |  |
| COc1cccc(OC)c1-c1c[nH]c2nc(NC(=O)C3CC3CCN(C)C)ccc12 (single isomer, unassigned) [Example S205, Enantiomer 1, N-(3-(2,6-dimethoxyphenyl)-1H-pyrrolo[2,3-b]pyridin-6-yl)-2-(2-(dimethylamino)ethyl)cyclopropane-1-carboxamide] |  |  | 10.6 | 15 | 21.5 |  |
| COc1cccc(OC)c1-c1c[nH]c2nc(NC(=O)C3CC3CCN(C)C)ccc12 (single isomer, unassigned) [Example S205, Enantiomer 2, N-(3-(2,6-dimethoxyphenyl)-1H-pyrrolo[2,3-b]pyridin-6-yl)-2-(2-(dimethylamino)ethyl)cyclopropane-1-carboxamide] |  |  | 15 | 20.9 | 55.3 |  |
| COc1nccc(OC2CC2)c1-c1c[nH]c2nc(NC(=O)C3CC3OCCN(C)C)ccc12 (single isomer, unassigned) [Example S220, Enantiomer 1, N-(3-(4-cyclopropoxy-2-methoxypyridin-3-yl)-1H-pyrrolo[2,3-b]pyridin-6-yl)-2-(2-(dimethylamino)ethoxy)cyclopropane-1-carboxamide] |  | > 10000 |  |  | 24.9 |  |
| COc1nccc(OC2CC2)c1-c1c[nH]c2nc(NC(=O)C3CC3OCCN(C)C)ccc12 (single isomer, unassigned) [Example S220, Enantiomer 2, N-(3-(4-cyclopropoxy-2-methoxypyridin-3-yl)-1H-pyrrolo[2,3-b]pyridin-6-yl)-2-(2-(dimethylamino)ethoxy)cyclopropane-1-carboxamide] |  |  |  |  | 57.3 | > 10000 |
| COc1nccc(OC2CC2)c1-c1c[nH]c2nc(NC(=O)C3CC3OCCN3CCC3)ccc12 (single isomer, unassigned) [Example S221, Enantiomer 1, 2-(2-(azetidin-1-yl)ethoxy)-N-(3-(4-cyclopropoxy-2-methoxypyridin-3-yl)-1H-pyrrolo[2,3-b]pyridin-6-yl)cyclopropane-1-carboxamide] |  | 6590 |  |  | 11.1 |  |
| COc1nccc(OC2CC2)c1-c1c[nH]c2nc(NC(=O)C3CC3OCCN3CCC3)ccc12 (single isomer, unassigned) [Example S221, Enantiomer 2, 2-(2-(azetidin-1-yl)ethoxy)-N-(3-(4-cyclopropoxy-2-methoxypyridin-3-yl)-1H-pyrrolo[2,3-b]pyridin-6-yl)cyclopropane-1-carboxamide] |  |  |  |  | 39.7 | 8660 |
| COc1ccccc1-c1c[nH]c2nc(NC(=O)C3CC3)ccc12 [Compound 1, N-(3-(2-methoxyphenyl)-1H-pyrrolo[2,3-b]pyridin-6-yl)cyclopropanecarboxamide] | 101 | > 10000 | 37.9 | 11.3 |  |  |
| COc1ccccc1-c1c[nH]c2nc(NC(=O)[C@H]3C[C@H]3F)ccc12 [Compound 2, (1R,2R)-2-fluoro-N-(3-(2-methoxyphenyl)-1H-pyrrolo[2,3-b]pyridin-6-yl)cyclopropane-1-carboxamide] | 176 | > 10000 | 22.2 | 9.96 |  |  |
| Cc1ccccc1-c1c[nH]c2nc(NC(=O)C3CC3)ccc12 [Compound 4, N-[3-(2-methylphenyl)-1H-pyrrolo[2,3-b]pyridin-6-yl]cyclopropanecarboxamide] | 223 | > 10000 | 113 | 32.3 |  |  |
| O=C(Nc1ccc2c(-c3ccccc3F)c[nH]c2n1)C1CC1 [Compound 5, N-[3-(2-fluorophenyl)-1H-pyrrolo[2,3-b]pyridin-6-yl]cyclopropanecarboxamide] | 713 | > 10000 | 119 | 32.9 |  |  |
| COc1cccc(OC)c1-c1c[nH]c2nc(NC(=O)C3CC3)ccc12 [Compound 45, N-[3-(2,6-dimethoxyphenyl)-1H-pyrrolo[2,3-b]pyridin-6-yl]cyclopropanecarboxamide] | 52.7 | > 10000 |  |  |  |  |
| COc1nc2nccn2cc1-c1c[nH]c2nc(NC(=O)[C@@H]3C[C@@H]3F)ccc12 [Compound 128, (1S,2S)-2-fluoro-N-(3-(7-methoxyimidazo[1,2-a]pyrimidin-6-yl)-1H-pyrrolo[2,3-b]pyridin-6-yl)cyclopropane-1-carboxamide] |  |  | 24.9 | 97.1 |  |  |
| COc1cccc(OC)c1-c1c[nH]c2nc(NC(=O)NCC3CNC3)ccc12 [Compound 129, 1-(azetidin-3-ylmethyl)-3-(3-(2,6-dimethoxyphenyl)-1H-pyrrolo[2,3-b]pyridin-6-yl)urea] |  |  | 32.9 | 35.8 |  |  |
| COc1c(-c2c[nH]c3nc(NC(=O)[C@@H]4C[C@@H]4F)ccc23)ccc2ncnn12 [Compound 134, (1S,2S)-2-fluoro-N-(3-[5-methoxy-[1,2,4]triazolo[1,5-a]pyridin-6-yl]-1H-pyrrolo[2,3-b]pyridin-6-yl)cyclopropane-1-carboxamide] |  |  | 64.8 | 227 |  |  |
| COc1cc2scnc2cc1-c1c[nH]c2nc(NC(=O)NCCN3CCNCC3)ccc12 [Compound 140, 3-[3-(6-methoxy-1,3-benzothiazol-5-yl)-1H-pyrrolo[2,3-b]pyridin-6-yl]-1-[2-(piperazin-1-yl)ethyl]urea] |  |  | 30.6 | 82.5 |  |  |
| COc1nc2[nH]ccc2cc1-c1c[nH]c2nc(NC(=O)[C@H]3C[C@@H]3F)ccc12 [Compound 141, (1R,2S)-2-fluoro-N-(6′-methoxy-1H,1′H-[3,5′-bipyrrolo[2,3-b]pyridin]-6-yl)cyclopropane-1-carboxamide] |  |  | 45.5 | 31.2 |  |  |
| COc1nc2[nH]ncc2cc1-c1c[nH]c2nc(NC(=O)[C@@H]3C[C@@H]3F)ccc12 [Compound 144, (1S,2S)-2-fluoro-N-(3-[6-methoxy-1H-pyrazolo[3,4-b]pyridin-5-yl]-1H-pyrrolo[2,3-b]pyridin-6-yl)cyclopropane-1-carboxamide] | 32 | > 10000 |  |  |  |  |
